Reference: patent EP0409499A2, “Pharmaceutical compositions” (BRITISH TECHNOLOGY GROUP LIMITED, priority 1989, dated 1991)

Assays:
[1] = test system: growing rats; assay: Cardioprotective effect against the toxicity of doxorubicin (heart rate and cardiac output in rats); type: in vivo; conditions: relative to saline + saline control
Experimental: The following compounds were selected to be tested for their cardioprotetive effect against the toxicity of doxorubicin. The compounds tested were: 1,3-bis(3,5-dioxopiperazin-1-yl)-propane 1,2-bis(2-methyl-3,5-dioxopiperazin-1-yl)-ethane 1,2-bis(3,5-dioxopiperazin-1-yl)-butane.
Groups of growing rats were injected intra-peritoneally (i.p.) with 100 mg/kg or 400 mg/kg body weight of the compound. After 1 hour, doxorubicin solution was injected intravenously (i.v.) at a concentration of 4 mg/kg body weight. Other groups of rats were injected with saline (i.p.) followed after 1 hour by saline (i.v.) or with saline (i.p.) followed after 1 hour by doxorubicin solution (i.v.) as controls. The cardiotoxicity of doxorubicin and the protection supplied by the compounds was assessed by measuring the heart rate and cardiac output relative to the saline + saline control. Cardiac output was measured by injecting ^99mTc into the heart and measuring the rate at which the isotope was cleared from the heart. Heart rate was measured in the standard manner.
The results are shown in the Table below from which it will be seen that each of the compounds results in an improvement in cardiac output and heart rate as compared with the depressed values which occur when only doxorubicin is used. TABLE

[2] = result in words, Herman et al, Adv. Pharmacol. Chemother. 1982, 19, 249; cited from earlier work
[3] = result in words, Herman et al, Res. Commun. Chem. Pathol. Pharmacol. 1985, 48, 39; cited from earlier work
[4] = compound 100 mg/kg i.p., 1 hour later doxorubicin 4 mg/kg i.v.
[5] = compound 100 mg/kg i.p., 1 hour later doxorubicin 4 mg/kg i.v., 99mTc clearance from the heart
[6] = saline i.p., 1 hour later doxorubicin 4 mg/kg i.v. alone

SMILES	Relative Heart Rate [1, 4]	Relative Cardiac Output [1, 5]	further results
CCC(CN1CC(=O)NC(=O)C1)N1CC(=O)NC(=O)C1 (racemic) [1,2-bis(3,5-dioxopiperazin-1-yl)-butane, dl-1,2-bis(3,5-dioxopiperazin-1-yl)-butane]	0.98 ± 0.03	0.70 ± 0.05	Relative Heart Rate ([1]; compound 400 mg/kg i.p., 1 hour later doxorubicin 4 mg/kg i.v.): 0.92 ± 0.04; Relative Cardiac Output ([1]; compound 400 mg/kg i.p., 1 hour later doxorubicin 4 mg/kg i.v., 99mTc clearance from the heart): 0.67 ± 0.05
CC1C(=O)NC(=O)CN1CCN1CC(=O)NC(=O)C1C (stereo not drawn) [1,2-bis(2-methyl-3,5-dioxopiperazin-1-yl)-ethane]	0.99 ± 0.03	0.62 ± 0.05	–
O=C1CN(CCCN2CC(=O)NC(=O)C2)CC(=O)N1 [1,3-bis(3,5-dioxopiperazin-1-yl)-propane]	0.81 ± 0.12	0.56 ± 0.06	–
CC(CN1CC(=O)NC(=O)C1)N1CC(=O)NC(=O)C1 (stereo not drawn) [ICRF 159]	–	–	reducing high dose daunorubicin toxicity versus doxorubicin toxicity [2]: consistently more effective in reducing high dose daunorubicin toxicity than doxorubicin toxicity
O=C1CN(CCN2CC(=O)N(CN3CCOCC3)C(=O)C2)CC(=O)N1CN1CCOCC1 [bimolane]	–	–	protective effect against acute daunorubicin toxicity [3]: give protection against the lethal effects of daunorubicin
COc1cccc2c1C(=O)c1c(O)c3c(c(O)c1C2=O)C[C@@](O)(C(=O)CO)C[C@@H]3O[C@H]1C[C@H](N)[C@H](O)[C@H](C)O1 [doxorubicin, reference compound]	–	–	Relative Cardiac Output [1, 6]: 0.41 ± 0.04; Relative Heart Rate [1, 6]: 0.65 ± 0.19
